From US5258406A, “Sulfonimidamides” (priority 1992, dated 1993)
Where two headings read alike, the source gives them in different places.

How the values were obtained:
Type in all cases: in vivo
6C3HED lymphosarcoma = assay: animal or person
B16 = settings: IP, DX 10
Description: (§1) The compounds were tested in C3H mice bearing a 6C3HED lymphosarcoma, also known as the Gardner lymphosarcoma (GLS), and in a variety of human tumor xenografts in CD1 nu/nu mice, including CX-1, LX-1, HXGC3, and VRC5. The 6C3HED lymphosarcoma was obtained from the Division of Cancer Treatment, National […] Institute, Tumor Bank, maintained at E. G. and G. Mason Research (Worcester, Mass.). The CX-1 human colon carcinoma and the LX-1 human lung carcinoma xenografts were obtained from the National Cancer Institute. The HXGC3 and VRC5 human colon xenografts were obtained from Dr. P. J. Houghton, St. Jude Children's Hospital in Memphis (see Br. J. Cancer, 37, 213 (1978)). First passage tumor was stored in liquid nitrogen using standard techniques. The transplanted tumor was reestablished from the Tumor Bank every six months or as needed. The tumor was maintained by serial passage twice weekly in C3H mice.
(§2) In the procedure the tumor was removed from passage animals and minced into 1- to 3-mm square fragments using sterile techniques. Tumor pieces were checked for sterility using both Antibiotic Medium 1 and Brain Heart Infusion (Difco, Detroit, Mich.). Recipient mice were shaved and tumor pieces were implanted subcutaneously in the auxiliary region by trocar. Drug therapy on the appropriate schedule was initiated on the day after tumor implant for 6C3HED and after a seven (7) day delay for xenografts (or other delay as noted in Table 2). The compound being tested was mixed with 2.5% Emulphor EL620 from GAF Corporation (1:40 dilution in saline). Food and water were provided ad libitium. The drug was administered orally in 0.5 ml of 2.5% Emulphor (unless otherwise indicated). The tumor was measured the day after treatment ended with two dimensional measurements (width and length) of the tumor taken using automated digital calipers interfaced to a microcomputer. Approximate weight for the tumor was calculated using the following formula [Worzalla, J. F., et al., Invest. New Drugs, 8, 241 (1990], (tumor weight in mg)=(width in mm)^2 ×(length in mm)/2.
(§3) At least one control group of an equal number of mice was treated with the same volume of 2.5% Emulphor only. The percent inhibition was determined by subtracting the ratio of the mean tumor size of the test group relative to the control group from one and multiplying the result times 100.
(§4) The results of several experiments in mice bearing a 6C3HED lymphosarcoma (or other tumor where indicated) when the indicated compounds were administered are provided in Table 2. In Table 2, column 1 gives the Example number of the compound used, column 2 lists the dose level in mg/kg, column 3 provides the percent inhibition of tumor growth, column 4 gives the number of mice which died relative to the total number of animals in the group, column 5 gives the method of administration of the compound, and column 6 gives the dosage schedule. The protocol used with other tumors was the same as with the 6C3HED lymphosarcoma.

HC1 = settings: IP, DX 10
Description: as §1, §2, §3, §4

C3H mammary adenocarcin = settings: IP, DX 10
Description: as §1, §2, §3, §4
(g) Tumor type C3H mammary adenocarcin

CA755 adenocarcinoma = settings: IP, DX 10
Description: as §1, §2, §3, §4
(h) Tumor type CA755 adenocarcinoma

colon carcinoma26 = settings: IP, DX 10
Description: as §1, §2, §3, §4
(i) Tumor type colon carcinoma26

M5 Ovarian Carcinoma = settings: IP, DX 10, from day 5 after implant
Description: as §1, §2, §3, §4
(n) Tumor type M5 Ovarian Carcinoma

Structure (SMILES): Cc1ccc(S(=N)(=O)NC(=O)Nc2ccc(Cl)cc2)cc1C (stereo not drawn) [Example 36, N-[[(4-chlorophenyl)amino]carbonyl]-3,4-dimethylbenzenesulfonimidamide]
- Tox/Tot (mice which died / total) (6C3HED lymphosarcoma; IP, 0.25 mg/kg, BIDX 8): 0/10
- Tox/Tot (mice which died / total) (6C3HED lymphosarcoma; IP, 0.5 mg/kg, BIDX 8): 0/10
- Tox/Tot (mice which died / total) (6C3HED lymphosarcoma; IP, 1 mg/kg, BIDX 8): 0/10
- Tox/Tot (mice which died / total) (6C3HED lymphosarcoma; IP, 2 mg/kg, BIDX 8): 0/10
- Tox/Tot (mice which died / total) (6C3HED lymphosarcoma; IP, 3.125 mg/kg, DX 8): 0/10
- Tox/Tot (mice which died / total) (6C3HED lymphosarcoma; IP, 4 mg/kg, BIDX 8): 0/10
- Tox/Tot (mice which died / total) (6C3HED lymphosarcoma; IP, 6.25 mg/kg, DX 8): 0/10
- Tox/Tot (mice which died / total) (6C3HED lymphosarcoma; IP, 12.5 mg/kg, DX 8): 1/10
- Tox/Tot (mice which died / total) (6C3HED lymphosarcoma; IP, 12.5 mg/kg, Days 1, 3, 5, 7): 0/10
- Tox/Tot (mice which died / total) (6C3HED lymphosarcoma; IP, 25 mg/kg, DX 8): 2/10
- Tox/Tot (mice which died / total) (6C3HED lymphosarcoma; IP, 25 mg/kg, Days 1, 3, 5, 7): 0/10
- Tox/Tot (mice which died / total) (6C3HED lymphosarcoma; IP, 50 mg/kg, DX 8): 6/10
- Tox/Tot (mice which died / total) (6C3HED lymphosarcoma; IP, 50 mg/kg, Days 1, 3, 5, 7): 0/10
- Tox/Tot (mice which died / total) (6C3HED lymphosarcoma; IP, 100 mg/kg, Days 1, 3, 5, 7): 3/10
- inhibition in vivo at 0.25 mg/kg (6C3HED lymphosarcoma; Mus musculus, 6C3HED, ip, read-out: % inhibition of tumor growth, IP, 0.25 mg/kg, BIDX 8): 16%
- inhibition in vivo at 0.5 mg/kg (6C3HED lymphosarcoma; Mus musculus, 6C3HED, ip, read-out: % inhibition of tumor growth, IP, 0.5 mg/kg, BIDX 8): 29%
- inhibition in vivo at 1 mg/kg (6C3HED lymphosarcoma; Mus musculus, 6C3HED, ip, read-out: % inhibition of tumor growth, IP, 1 mg/kg, BIDX 8): 43%
- inhibition in vivo at 2 mg/kg (6C3HED lymphosarcoma; Mus musculus, 6C3HED, ip, read-out: % inhibition of tumor growth, IP, 2 mg/kg, BIDX 8): 75%
- inhibition in vivo at 3.125 mg/kg (6C3HED lymphosarcoma; Mus musculus, 6C3HED, ip, read-out: % inhibition of tumor growth, IP, 3.125 mg/kg, DX 8): 74%
- inhibition in vivo at 4 mg/kg (6C3HED lymphosarcoma; Mus musculus, 6C3HED, ip, read-out: % inhibition of tumor growth, IP, 4 mg/kg, BIDX 8): 97%
- inhibition in vivo at 6.25 mg/kg (6C3HED lymphosarcoma; Mus musculus, 6C3HED, ip, read-out: % inhibition of tumor growth, IP, 6.25 mg/kg, DX 8): 93%
- inhibition in vivo at 12.5 mg/kg (6C3HED lymphosarcoma; Mus musculus, 6C3HED, ip, read-out: % inhibition of tumor growth, IP, 12.5 mg/kg, DX 8): 98%
- inhibition in vivo at 12.5 mg/kg (6C3HED lymphosarcoma; Mus musculus, 6C3HED, ip, read-out: % inhibition of tumor growth, IP, 12.5 mg/kg, Days 1, 3, 5, 7): 88%
- inhibition in vivo at 25 mg/kg (6C3HED lymphosarcoma; Mus musculus, 6C3HED, ip, read-out: % inhibition of tumor growth, IP, 25 mg/kg, DX 8): 100%
- inhibition in vivo at 25 mg/kg (6C3HED lymphosarcoma; Mus musculus, 6C3HED, ip, read-out: % inhibition of tumor growth, IP, 25 mg/kg, Days 1, 3, 5, 7): 99%
- inhibition in vivo at 50 mg/kg (6C3HED lymphosarcoma; Mus musculus, 6C3HED, ip, read-out: % inhibition of tumor growth, IP, 50 mg/kg, DX 8): 100%
- inhibition in vivo at 50 mg/kg (6C3HED lymphosarcoma; Mus musculus, 6C3HED, ip, read-out: % inhibition of tumor growth, IP, 50 mg/kg, Days 1, 3, 5, 7): 99%
- inhibition in vivo at 100 mg/kg (6C3HED lymphosarcoma; Mus musculus, 6C3HED, ip, read-out: % inhibition of tumor growth, IP, 100 mg/kg, Days 1, 3, 5, 7): 100%
- inhibition in vivo at 6.25 mg/kg (6C3HED lymphosarcoma; Mus musculus, 6C3HED, po, read-out: % inhibition of tumor growth, oral, 6.25 mg/kg, BIDX 8): 100%
- inhibition in vivo at 12.5 mg/kg (6C3HED lymphosarcoma; Mus musculus, 6C3HED, po, read-out: % inhibition of tumor growth, oral, 12.5 mg/kg, BIDX 8): 100%
- inhibition in vivo at 25 mg/kg (6C3HED lymphosarcoma; Mus musculus, 6C3HED, po, read-out: % inhibition of tumor growth, oral, 25 mg/kg, BIDX 8): 100%
- inhibition in vivo at 50 mg/kg (6C3HED lymphosarcoma; Mus musculus, 6C3HED, po, read-out: % inhibition of tumor growth, oral, 50 mg/kg, BIDX 8): 100%
- inhibition in vivo at 150 mg/kg (6C3HED lymphosarcoma; Mus musculus, 6C3HED, po, read-out: % inhibition of tumor growth, oral, 150 mg/kg, BIDX 8): 99%
- Tox/Tot (mice which died / total) (6C3HED lymphosarcoma; oral, 6.25 mg/kg, BIDX 8): 2/8
- Tox/Tot (mice which died / total) (6C3HED lymphosarcoma; oral, 12.5 mg/kg, BIDX 8): 5/8
- Tox/Tot (mice which died / total) (6C3HED lymphosarcoma; oral, 25 mg/kg, BIDX 8): 2/8
- Tox/Tot (mice which died / total) (6C3HED lymphosarcoma; oral, 50 mg/kg, BIDX 8): 7/8
- % inhibition of tumor growth (6C3HED lymphosarcoma; oral, 100 mg/kg, BIDX 8): TOX
- Tox/Tot (mice which died / total) (6C3HED lymphosarcoma; oral, 100 mg/kg, BIDX 8): 8/8
- Tox/Tot (mice which died / total) (6C3HED lymphosarcoma; oral, 150 mg/kg, BIDX 8): 6/10
- % inhibition of tumor growth (6C3HED lymphosarcoma; oral, 300 mg/kg, BIDX 8): TOX
- Tox/Tot (mice which died / total) (6C3HED lymphosarcoma; oral, 300 mg/kg, BIDX 8): 10/10
- % inhibition of tumor growth (B16; 3.75 mg/kg): 0%
- Tox/Tot (mice which died / total) (B16; 3.75 mg/kg): 0/10
- % inhibition of tumor growth (B16; 7.5 mg/kg): 0%
- Tox/Tot (mice which died / total) (B16; 7.5 mg/kg): 0/10
- % inhibition of tumor growth (B16; 15 mg/kg): 0%
- Tox/Tot (mice which died / total) (B16; 15 mg/kg): 0/10
- % inhibition of tumor growth (B16; 30 mg/kg): 9%
- Tox/Tot (mice which died / total) (B16; 30 mg/kg): 0/10
- % inhibition of tumor growth (HC1; 7.5 mg/kg): 1%
- Tox/Tot (mice which died / total) (HC1; 7.5 mg/kg): 0/10
- % inhibition of tumor growth (HC1; 15 mg/kg): 24%
- Tox/Tot (mice which died / total) (HC1; 15 mg/kg): 0/10
- % inhibition of tumor growth (HC1; 30 mg/kg): 46%
- Tox/Tot (mice which died / total) (HC1; 30 mg/kg): 6/10
- % inhibition of tumor growth (HC1; 60 mg/kg): TOX
- Tox/Tot (mice which died / total) (HC1; 60 mg/kg): 10/10
- % inhibition of tumor growth (C3H mammary adenocarcin; 3.75 mg/kg): 38%
- Tox/Tot (mice which died / total) (C3H mammary adenocarcin; 3.75 mg/kg): 1/10
- % inhibition of tumor growth (C3H mammary adenocarcin; 7.5 mg/kg): 69%
- Tox/Tot (mice which died / total) (C3H mammary adenocarcin; 7.5 mg/kg): 0/10
- % inhibition of tumor growth (C3H mammary adenocarcin; 15 mg/kg): 74%
- Tox/Tot (mice which died / total) (C3H mammary adenocarcin; 15 mg/kg): 6/10
- % inhibition of tumor growth (C3H mammary adenocarcin; 30 mg/kg): TOX
- Tox/Tot (mice which died / total) (C3H mammary adenocarcin; 30 mg/kg): 10/10
- % inhibition of tumor growth (CA755 adenocarcinoma; 3.75 mg/kg): 26%
- Tox/Tot (mice which died / total) (CA755 adenocarcinoma; 3.75 mg/kg): 0/10
- % inhibition of tumor growth (CA755 adenocarcinoma; 7.5 mg/kg): 1%
- Tox/Tot (mice which died / total) (CA755 adenocarcinoma; 7.5 mg/kg): 0/10
- % inhibition of tumor growth (CA755 adenocarcinoma; 15 mg/kg): 42%
- Tox/Tot (mice which died / total) (CA755 adenocarcinoma; 15 mg/kg): 0/10
- % inhibition of tumor growth (CA755 adenocarcinoma; 30 mg/kg): 72%
- Tox/Tot (mice which died / total) (CA755 adenocarcinoma; 30 mg/kg): 0/10
- % inhibition of tumor growth (colon carcinoma26; 3.75 mg/kg): 5%
- Tox/Tot (mice which died / total) (colon carcinoma26; 3.75 mg/kg): 0/10
- % inhibition of tumor growth (colon carcinoma26; 7.5 mg/kg): 14%
- Tox/Tot (mice which died / total) (colon carcinoma26; 7.5 mg/kg): 0/10
- % inhibition of tumor growth (colon carcinoma26; 15 mg/kg): 6%
- Tox/Tot (mice which died / total) (colon carcinoma26; 15 mg/kg): 0/10
- % inhibition of tumor growth (colon carcinoma26; 30 mg/kg): 26%
- Tox/Tot (mice which died / total) (colon carcinoma26; 30 mg/kg): 0/10
- % inhibition of tumor growth (M5 Ovarian Carcinoma; 3.75 mg/kg): 10%
- Tox/Tot (mice which died / total) (M5 Ovarian Carcinoma; 3.75 mg/kg): 0/10
- % inhibition of tumor growth (M5 Ovarian Carcinoma; 7.5 mg/kg): 19%
- Tox/Tot (mice which died / total) (M5 Ovarian Carcinoma; 7.5 mg/kg): 0/10
- % inhibition of tumor growth (M5 Ovarian Carcinoma; 15 mg/kg): 47%
- Tox/Tot (mice which died / total) (M5 Ovarian Carcinoma; 15 mg/kg): 0/10
- % inhibition of tumor growth (M5 Ovarian Carcinoma; 30 mg/kg): 38%
- Tox/Tot (mice which died / total) (M5 Ovarian Carcinoma; 30 mg/kg): 1/10
